According to ChEMBL document CHEMBL1155657, “Triterpene glycosides from the Far-Eastern sea cucumber Pentamera calcigera. 1. Monosulfated glycosides and cytotoxicity of their unsulfated derivatives” (J Nat Prod, 2000):

Tests used:
Type in all cases: functional, cell-based
[1] = tested on: P388; test: Cytotoxicity against mouse P388 cells
[2] = tested on: HT-29; test: Cytotoxicity against human HT29 cells
[3] = tested on: A549; test: Cytotoxicity against human A549 cells
[4] = Cytotoxicity against human MEL-28 cells; settings: SK-MEL-28

Measured: IC50

C=C(C)[C@H]1[C@@H]2C[C@@]3(C)C4=CC[C@H]5C(C)(C)[C@@H](O[C@@H]6OC[C@@H](O)[C@H](O)[C@H]6O[C@@H]6O[C@H](C)[C@@H](O[C@@H]7O[C@H](CO)[C@@H](O)[C@H](O[C@@H]8OC[C@@H](O)[C@H](OC)[C@H]8O)[C@H]7O)[C@H](O)[C@H]6O[C@@H]6O[C@H](CO)[C@@H](O)[C@H](O)[C@H]6O)CC[C@]5(C)[C@@H]4CC[C@]13C(=O)O2
5 µg/mL: [1] | [2] | [3] | [4]

C=C(C)[C@H]1[C@@H]2C[C@@]3(C)C4=CC[C@H]5C(C)(C)[C@@H](O[C@@H]6OC[C@@H](O)[C@H](O)[C@H]6O[C@@H]6O[C@H](C)[C@@H](O[C@@H]7O[C@H](CO)[C@@H](O)[C@H](O[C@@H]8OC[C@@H](O)[C@H](OC)[C@H]8O)[C@H]7O)[C@H](O)[C@H]6O[C@@H]6O[C@H](C)[C@@H](O)[C@H](O)[C@H]6O)CC[C@]5(C)[C@@H]4CC[C@]13C(=O)O2
5 µg/mL: [1] | [2] | [3] | [4]
